Data from patent publication US20250290076A1, “EPICARDIAL CELL REGENERATION PROMOTER AND METHOD FOR PROMOTING EPICARDIAL CELL REGENERATION” (KYOTO UNIVERSITY, priority 2022, published 2025).

Legend:
Assay type in all cases: cell-based
human epicardial cells = assay: Colony formation assay; conditions: colony formation for 14 days after siRNA transfection; vs negative control siRNA
Method: (§1) In the siRNA transfection assay, the human iPS cell-derived fetal epicardium was seeded at a density of 0.8×10^6 cells per 10 cm dish, and transfection was carried out using RNAiMax (Invitrogen). Twenty-four hours after the transfection, the culture medium was replaced with a fresh medium. A small interfering RNA (siRNA) (sense strand: CAAGGAGUCAGACAUUUUAtt (SEQ ID NO: 1), an anti-sense strand: UAAAAUGUCUGACUCCUUGtt (SEQ ID NO: 2)) targeting CDKN1A, and a negative control siRNA No.1 (4390843) derived from Ambion Silencer Select, were used in accordance with the manufacturer's instructions.
[…] Thereafter, the colony was fixed with 4% PFA, stained with crystal violet, and counted by Image-J.
The colony formation assay was carried out in the same manner, in order to measure the viability of the human epicardial cells.

[1] = system: human iPS cell-derived fetal epicardium; assay: Wound-healing assay; conditions: from 20 hours to 24 hours after scratching; vs negative control siRNA
Method: as §1
The cells were seeded on a six-well plate and cultured until 100% confluent. Subsequently, the cell monolayer was scratched with a pipette tip, to create a physical wound manually. The scratched area was imaged 0, 12, 16, 20 and 24 hours after scratching. The area without cells at the beginning, and the remaining area after 12, 16, 20 and 24 hours, were quantified by Image-J. Thereafter, the percentage of the scratched area into which migrating cells reassembled (the percentage of the wound-closed area) was calculated, with respect to the scratched area.
Further, the wound-healing assay was performed for the human iPS cell-derived fetal epicardium which had been subjected to the transfection assay using each siRNA. […]

CDKN1A = assay: siRNA transfection assay, relative CDKN1A mRNA expression by quantitative RT-PCR; conditions: human iPS cell-derived fetal epicardium; vs negative control siRNA; normalized with GAPDH
Method: as §1
RNAs were extracted using QIAzol lysis reagent (manufactured by QIAGEN N.V.), and cDNA was synthesized from the total RNA using ReverTra Ace qPCR RT Master Mix with gDNA Remover (manufactured by TOYOBO Co., Ltd.). Subsequently, quantitative RT-PCR was performed using Thunderbird SYBR qPCR Mix (manufactured by TOYOBO Co., Ltd.)), in One Step Real-Time PCR System (Applied Biosystems). The gene expression results were quantified by the AACt method, and normalized with GAPDH.
The primers used are as follows. […]
The human iPS cell-derived fetal epicardium was subjected to siRNA transfection assay, using a siRNA (siCDKN1A) targeting CDKN1A or a negative control siRNA (control), and the relative mRNA expression levels of CDKN1A were measured by quantitative RT-PCR.

[2] = system: human iPS cell-derived fetal epicardium; assay: Cell proliferation curve assay; conditions: cell proliferation curves for 7 days after siRNA transfection; vs negative control siRNA
Method: as §1
The cell proliferation was evaluated by the time-course curve of the proliferation of the cells on a six-well plate. The cells were seeded at a density of 4 ×10^4 cells per well, and the total number of cells was counted using trypan blue for 8 days at intervals of 24 hours. The cell proliferation curves were generated by plotting the number of cells against time. After seeding, the cells were fixed with 4% paraformaldehyde (PFA), and stained with crystal violet on the days the cells were counted. The values were represented as the cell proliferation rate of the cells proliferated in the presence of 10% FBS. “0%” refers to the number of cells on day 0. […]

[3] = system: human iPS cell-derived fetal epicardium; assay: Transcriptome analysis for gene signature of cell quiescence by RNA sequencing; conditions: compared to human iPS cell-derived fetal epicardium and adult epicardium
Method: as §1
The data obtained by RNA sequencing were normalized using NOISeq. The data of the adult epicardium are published for the analysis, under the GSE accession number: GSE8484085. The primary data of the RNA sequencing were processed using RStudio, for mapping and gene expression analysis. The gene expression data for searching, loading and pre-processing were processed using the Bioconductor package, NOISeq, for performing the data analysis and the differential expression analysis of the RNA sequencing data. Heatmaps for clustering differentially expressed genes (DEG) were generated, using R script.
In addition, the transcriptome analysis for detecting the gene signature of cell quiescence was carried out by RNA sequencing (FIG. 6). […]

siCDKN1A: siRNA targeting CDKN1A; sense strand CAAGGAGUCAGACAUUUUAtt (SEQ ID NO: 1), anti-sense strand UAAAAUGUCUGACUCCUUGtt (SEQ ID NO: 2) (sense CAAGGAGUCAGACAUUUUATT; antisense UAAAAUGUCUGACUCCUUGTT; chemistry not given here)
viability of the human epicardial cells (colony formation) (human epicardial cells): significant increase | wound healing capacity (percentage of the wound-closed area) [1]: significant increase | expression level of CDKN1A at the mRNA level as compared to that in the control (CDKN1A): ≤ 50% | proliferative capacity of the human epicardial cells [2]: significant increase | cell quiescence gene signature [3]: more released from quiescence
